This passage reports IC50 results from patent US9120749B2, “Quinoline derivatives and MELK inhibitors containing the same” (ONCOTHERAPY SCIENCE, INC., priority 2010, dated 2015).

One assay has as its system 22Rv1 cells. Kind of assay: Cell-based assay: anti-proliferative activity, Cell Counting Kit-8, 72 hours (22Rv1). The note with it: Homo sapiens. On the technique in general: Tetrazolium dyes change colour on reduction, which living cells bring about.
For another assay, the system named is DU4475 cells. Kind of assay: Cell-based assay: anti-proliferative activity, Cell Counting Kit-8, 72 hours (DU4475).
The target in a further assay is MELK (Homo sapiens, UniProt Q14680). Kind of assay: Kinase assay: MELK activity, phosphorylation of FITC-labeled histone H3 peptide measured by IMAP fluorescence polarization. The note with it: read-out: IC50 (μM) (kinase assay). Type of assay: biochemical. The method in brief: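 A FITC-labelled histone H3 peptide served as substrate, with compounds serially diluted to 1% DMSO final. Reactions were stopped with three volumes of IMAP progressive binding solution. After 0.5 h at room temperature, fluorescence polarization was read.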
Chain of MELK (Q14680 whole entry, looked up): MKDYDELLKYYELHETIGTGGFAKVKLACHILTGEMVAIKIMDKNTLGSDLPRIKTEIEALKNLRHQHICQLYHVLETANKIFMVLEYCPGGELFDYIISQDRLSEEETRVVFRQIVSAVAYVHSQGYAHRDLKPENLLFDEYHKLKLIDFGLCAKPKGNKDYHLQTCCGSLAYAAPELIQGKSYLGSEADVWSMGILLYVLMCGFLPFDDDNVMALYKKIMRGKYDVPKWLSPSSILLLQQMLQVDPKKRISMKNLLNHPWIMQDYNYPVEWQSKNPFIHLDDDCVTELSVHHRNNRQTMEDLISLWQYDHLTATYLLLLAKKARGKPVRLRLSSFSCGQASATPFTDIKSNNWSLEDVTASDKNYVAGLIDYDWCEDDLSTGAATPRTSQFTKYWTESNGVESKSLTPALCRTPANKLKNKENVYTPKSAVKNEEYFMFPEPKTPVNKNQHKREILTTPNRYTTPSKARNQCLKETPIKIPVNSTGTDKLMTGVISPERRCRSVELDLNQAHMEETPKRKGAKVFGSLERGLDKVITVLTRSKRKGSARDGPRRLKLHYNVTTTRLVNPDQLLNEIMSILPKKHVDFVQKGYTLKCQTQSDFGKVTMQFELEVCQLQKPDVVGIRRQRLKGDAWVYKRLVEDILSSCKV

Another assay has as its system A549 cells. Briefly: Cell-based assay: anti-proliferative activity, Cell Counting Kit-8, 72 hours (A549). As to conditions: 72 hours. The method in brief:
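Cell Counting Kit-8 read-out of A549 growth after 72 hours of inhibitor exposure, cells plated in 96-well format. Values reported as IC50.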

The test system of another assay is HT-1197 cells. Kind of assay: Cell-based assay: anti-proliferative activity, Cell Counting Kit-8, 72 hours (HT-1197, negative control without MELK expression). As to conditions: 72 hours. The method in brief: (§1)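 T47D, A549 and BT-549 cells, with MELK-negative HT-1197 as control (MELK status checked by western blot), seeded at 2,000–3,000 cells/well. Growth measured by CCK-8 72 hours after inhibitor exposure; IC50 values calculated.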

For another assay, the system named is T47D cells. Briefly: Cell-based assay: anti-proliferative activity, Cell Counting Kit-8, 72 hours (T47D). A digest of the protocol: as §1
The next assay deals with 22Rv1. Briefly: Cell-based assay: anti-proliferative activity, Cell Counting Kit-8, 72 hours (22Rv1). The note with it: Homo sapiens; 22Rv1 cells. How it is done: Active candidate inhibitors against MELK were evaluated for their target-specific cytotoxicity using T47D, A549, BT-549, and HT-1197 cells was used for negative control. 100 micro-L of cell suspension was seeded onto 96-well microtiter plate (ViewPlate-96FTC, PerkinElmer). The initial cell concentration of T47D, A549, BT-549, and HT-1197 were 3,000 cells/well, 2,000 cells/well and 2,500 cells/well, respectively. Cellular growth was determined using Cell Counting Kit-8 (DOJINDO) at 72 hours after the exposure of the candidate inhibitors. […] Accurate IC50 values were calculated as described previously.

The subject of the next assay is DU4475. Briefly: Cell-based assay: anti-proliferative activity, Cell Counting Kit-8, 72 hours (DU4475).
[1] abbreviates: HT1197 cells (negative control), hydrochloride.
Where [2] appears, read: HT1197 cells (negative control, no MELK expression), hydrochloride.
The mark [3] stands for this setting: Homo sapiens, HT1197, 72 h, HT1197 cells (negative control, no MELK expression).
[4] abbreviates: 50 micro-M ATP, FITC-labeled histone H3 peptide substrate, IMAP fluorescence polarization.
Where [5] appears, read: HT1197 cells (negative control, no MELK expression).
[6] abbreviates: Homo sapiens, DU-4475, DU4475 cells.

Counter-ions that a name gives are not always drawn. Like-named read-outs stand apart in the source and are kept apart here.

The IC50 is the concentration at which inhibition is half-maximal. Consider `CC(C)(N)c1ccc(Nc2c(C(=O)C3CC3)cnc3ccc(-c4cc(F)c(O)c(Cl)c4)cc23)cc1` [Example 604, {4-[4-(2-Aminopropan-2-yl)phenylamino]-6-(3-chloro-5-fluoro-4-hydroxyphenyl)quinolin-3-yl}(cyclopropyl)methanone], for which the IC50 with 22Rv1 cells is 0.087 µM; with DU4475 cells (Homo sapiens, DU-4475, 72 h), 0.039 µM; at MELK, 0.0028 µM; with A549 cells (Homo sapiens, A549, 72 h), 0.097 µM; in the assay with HT-1197 cells (Homo sapiens, HT1197, 72 h, HT1197 cells (negative control)), 0.79 µM; in the assay on T47D cells (Homo sapiens, T47D, 72 h), 0.094 µM.
Regarding `CN(C)CCc1ccc(Nc2c(C(=O)C3CC3)cnc3ccc(-c4cc(Cl)c(O)c(Cl)c4)cc23)cc1` [Example 614, cyclopropyl(6-(3,5-dichloro-4-hydroxyphenyl)-4-(4-(2-(dimethylamino)ethyl)phenylamino)quinolin-3-yl)methanone hydrochloride], the IC50 in the assay on 22Rv1 cells was 0.12 µM; in the assay on DU4475 cells (hydrochloride), 0.024 µM; on MELK (hydrochloride), 0.0016 µM; in the assay with HT-1197 cells (setting [1]) it was 1.6 µM; in the assay with T47D cells (72 hours, hydrochloride), 0.12 µM.
For `NCc1ccc(Nc2c(C(=O)C3CC3)cnc3ccc(-c4cc(Cl)c(O)c(Cl)c4)cc23)cc1` [Example 508, (4-(4-(aminomethyl)phenylamino)-6-(3,5-dichloro-4-hydroxyphenyl)quinolin-3-yl)(cyclopropyl)methanone hydrochloride], the IC50 worked out at 0.099 µM in the assay with 22Rv1; 0.02 µM in the assay on DU4475 (DU4475 cells, hydrochloride); 0.0017 µM on MELK (hydrochloride); 0.067 µM in the assay on A549 cells (hydrochloride); 0.49 µM with HT-1197 cells (setting [2]); 0.078 µM with T47D cells (72 hours, hydrochloride).
Take `CC(=O)c1cnc2ccc(-c3cc(Cl)c(O)c(Cl)c3)cc2c1Nc1ccc(CN2CCCC2)cc1` [Example 416, 1-(6-(3,5-dichloro-4-hydroxyphenyl)-4-(4-(pyrrolidin-1-ylmethyl)phenylamino)quinolin-3-yl)ethanone hydrobromide]: the half-inhibitory concentration (IC50) in the assay on 22Rv1 is 0.19 µM; with DU4475 (DU4475 cells, hydrobromide), 0.053 µM; on MELK (50 micro-M ATP, FITC-labeled histone H3 peptide substrate, IMAP fluorescence polarization, hydrobromide), 0.0032 µM; with A549 cells (hydrobromide), 0.11 µM; with HT-1197 cells (HT1197 cells (negative control, no MELK expression), hydrobromide), 6.1 µM; in the assay with T47D cells (72 hours, hydrobromide), 0.066 µM.
On to `CN(C)Cc1ccc(Nc2c(S(C)(=O)=O)cnc3ccc(-c4cc(Cl)c(O)c(Cl)c4)cc23)cc1` [Example 401, 2,6-dichloro-4-(4-(4-((dimethylamino)methyl)phenylamino)-3-(methylsulfonyl)quinolin-6-yl)phenol hydrochloride], for which the IC50 was 0.52 µM in the assay on 22Rv1; 0.11 µM in the assay on DU4475 (DU4475 cells, hydrochloride); 0.0055 µM at MELK (50 micro-M ATP, FITC-labeled histone H3 peptide substrate, IMAP fluorescence polarization, hydrochloride); 0.44 µM in the assay with A549 cells (hydrochloride); 2.2 µM in the assay with HT-1197 cells (setting [3]); 0.19 µM in the assay on T47D cells (72 hours, hydrochloride).
With `NCc1ccc(Nc2c(C(=O)C3CC3)cnc3ccc(-c4cc(F)c(O)c(Cl)c4)cc23)cc1` [Example 505, (4-(4-(aminomethyl)phenylamino)-6-(3-chloro-5-fluoro-4-hydroxyphenyl)quinolin-3-yl)(cyclopropyl)methanone hydrochloride], the half-inhibitory concentration (IC50) in the assay with 22Rv1 stood at 0.088 µM; in the assay on DU4475 (DU4475 cells, hydrochloride), 0.026 µM; at MELK (hydrochloride), 0.0027 µM; in the assay on A549 cells (hydrochloride), 0.067 µM; with HT-1197 cells (setting [2]), 0.4 µM; with T47D cells (72 hours, hydrochloride), 0.063 µM.
Take `CN(C)C[C@H]1CC[C@H](Nc2c(S(C)(=O)=O)cnc3ccc(-c4cc(Cl)c(O)c(Cl)c4)cc23)CC1` [Example 421]: the IC50 with 22Rv1 came to 0.64 µM; in the assay on DU4475 (DU4475 cells), 0.086 µM; at MELK (setting [4]), 0.0017 µM; with A549 cells it was 0.68 µM; with HT-1197 cells (setting [5]), 2.1 µM; in the assay with T47D cells (72 hours), 0.47 µM.
In the case of `CN[C@H]1CC[C@H](Nc2c(C(C)=O)cnc3ccc(-c4cc(Cl)c(O)c(OC)c4)cc23)CC1` [Example 543, 1-(6-(3-chloro-4-hydroxy-5-methoxyphenyl)-4-(1R,4R)-4-(methylamino)cyclohexylamino)quinolin-3-yl)ethanone dihydrochloride], the IC50 worked out at 0.14 µM in the assay on 22Rv1 cells; 0.051 µM in the assay with DU4475 cells (dihydrochloride); 0.0018 µM on MELK (dihydrochloride); 0.076 µM in the assay with A549 cells (dihydrochloride); 1.1 µM in the assay on HT-1197 cells (HT1197 cells (negative control), dihydrochloride); 0.047 µM in the assay with T47D cells (72 hours, dihydrochloride).
On to `COc1cc(-c2ccc3ncc(C(=O)C4CC4)c(N[C@H]4CC[C@H](CN)CC4)c3c2)cc(Cl)c1O` [Example 494, (4-(4-(aminomethyl)cyclohexylamino)-6-(3-chloro-4-hydroxy-5-methoxyphenyl)quinolin-3-yl)(cyclopropyl)methanone hydrochloride], for which the IC50 in the assay with 22Rv1 amounted to 0.13 µM; with DU4475 (DU4475 cells, hydrochloride) it was 0.055 µM; at MELK (hydrochloride), 0.0016 µM; in the assay on A549 cells (hydrochloride) it was 0.085 µM; in the assay with HT-1197 cells (setting [2]), 0.48 µM; with T47D cells (72 hours, hydrochloride), 0.081 µM.
Take `CN1CCN(C[C@H]2CC[C@H](Nc3c(C(=O)C4CC4)cnc4ccc(-c5cc(Cl)c(O)c(Cl)c5)cc34)CC2)CC1` [Example 619, cyclopropyl(6-(3,5-dichloro-4-hydroxyphenyl)-4-(1R,4R)-4-((4-methylpiperazin-1-yl)methyl)cyclohexylamino)quinolin-3-yl)methanone hydrochloride]: the half-inhibitory concentration (IC50) in the assay with 22Rv1 cells stood at 0.51 µM; with DU4475 cells (hydrochloride), 0.15 µM; with A549 cells (hydrochloride), 0.28 µM; with HT-1197 cells (setting [1]), 2.6 µM; in the assay with T47D cells (72 hours, hydrochloride), 0.32 µM.
With `O=C(c1cnc2ccc(-c3cc(Cl)c(O)c(Cl)c3)cc2c1N[C@H]1CC[C@H](CN2CCCC2)CC1)C1CC1` [Example 585, cyclopropyl(6-(3,5-dichloro-4-hydroxyphenyl)-4-(1R,4R)-4-(pyrrolidin-1-ylmethyl)cyclohexylamino)quinolin-3-yl)methanone hydrochloride], the IC50 in the assay on 22Rv1 cells turned out to be 0.1 µM; in the assay on DU4475 cells (hydrochloride) it was 0.043 µM; in the assay on A549 cells (hydrochloride), 0.073 µM; with HT-1197 cells (setting [1]) it was 0.78 µM; with T47D cells (72 hours, hydrochloride) it was 0.12 µM.
Take `O=C(c1cnc2ccc(-c3cc(F)c(O)c(Cl)c3)cc2c1Nc1ccc(CN2CCCC2)cc1)C1CC1` [Example 396, {6-(3-chloro-5-fluoro-4-hydroxyphenyl)-4-[4-(pyrrolidin-1-ylmethyl)phenylamino]quinolin-3-yl}(cyclopropyl)methanone]: the half-inhibitory concentration (IC50) with 22Rv1 was 0.38 µM; in the assay on DU4475 (setting [6]) it was 0.084 µM; at MELK (setting [4]) it was 0.0088 µM; in the assay on A549 cells (Homo sapiens, A549, 72 h) it was 0.087 µM; in the assay on HT-1197 cells (setting [3]) it was 1.6 µM; with T47D cells (Homo sapiens, T47D, 72 h) it was 0.21 µM.
On to `CC(=O)c1cnc2ccc(-c3cc(F)c(O)c(Cl)c3)cc2c1Nc1ccc(N2CCN(C)CC2)nc1` [Example 488, 1-(6-(3-chloro-5-fluoro-4-hydroxyphenyl)-4-(6-(4-methylpiperazin-1-yl)pyridin-3-ylamino)quinolin-3-yl)ethanone], for which the IC50 with 22Rv1 came to 0.38 µM; in the assay with DU4475 (DU4475 cells), 0.14 µM; at MELK, 0.0041 µM; with A549 cells, 0.2 µM; in the assay on HT-1197 cells (setting [5]), 2.1 µM; in the assay on T47D cells (72 hours), 0.084 µM.
On to `O=C(c1cnc2ccc(-c3cc(F)c(O)c(Cl)c3)cc2c1Nc1ccc(N2CCNCC2)nc1)C1CC1` [Example 425, (6-(3-chloro-5-fluoro-4-hydroxyphenyl)-4-(6-(piperazin-1-yl)pyridin-3-ylamino)quinolin-3-yl)(cyclopropyl)methanone], for which the IC50 in the assay on 22Rv1 is 0.082 µM; in the assay with DU4475 (setting [6]) it was 0.044 µM; at MELK (setting [4]), 0.0027 µM; in the assay with A549 cells (Homo sapiens, A549, 72 h) it was 0.16 µM; with HT-1197 cells (setting [3]), 1.4 µM; in the assay on T47D cells (Homo sapiens, T47D, 72 h), 0.042 µM.
